Test results as given in patent publication US11951131B2, “Anti-SLAMF7 chimeric antigen receptors” (The United States of America, as represented by the …, priority 2018, dated 2024).
Entries after “also recorded” stand apart in the source; their conditions may differ.

Key:
Format in all cases: cell-based, human
SLAMF7^+ MM.1S cells = test: Cytotoxicity assay (4 hours, relative to CCRF-CEM cells); conditions: MM.1S relative to control CCRF-CEM cells (FIG. 8A)
Experimental: Cytotoxicity assays were conducted as previously described (see Kochenderfer et al., J. Immunother., 32(7): 689-702 (2009)). Cytotoxicity was measured by comparing survival of SLAMF7^+ target cells relative to the survival of negative-control CCRF-CEM cells. Both of these cell types were combined in the same tubes with CAR-transduced T cells. CCRF-CEM negative control cells were labeled with the fluorescent dye 5-(and -6)-(((4-chloromethyl)benzoyl)amino) tetramethylrhodamine (CMTMR) (Invitrogen), and SLAMF7^+ target cells were labeled with CFSE. Cocultures were set up in sterile 5 mL test tubes (BD Biosciences) in duplicate at multiple T cell to target cell ratios. The target cells contained in the tubes were 50,000 SLAMF7^+ target cells along with 50,000 CCRF-CEM negative-control cells. The cultures were incubated for 4 hours at 37° C. Immediately after the incubation, 7AAD (7-amino-actinomycin D) (BD Biosciences) was added, and flow cytometry acquisition was performed. For each T cell plus target-cell culture, the percent survival of SLAMF7^+ target cells was determined by dividing the percent live SLAMF7^+ cells by the percent live CCRF-CEM negative control cells. The corrected percent survival of SLAMF7^+ target cells was calculated by dividing the percent survival of SLAMF7^+ target cells in each T cell plus target cell culture by the ratio of the percent live SLAMF7^+ target cells to percent live CCRF-CEM negative-control cells in tubes containing only SLAMF7^+ target cells and CCRF-CEM cells without effector T cells. This correction was necessary to account for variation in the starting cell numbers and for spontaneous target cell death. Cytotoxicity was calculated as follows: the percent cytotoxicity of […] target cells=100−corrected percent survival of SLAMF7^+ target cells.

IC9-expressing T cells = test: 6-hour and 48-hour post-rimiducid T cell death analysis; conditions: for elimination of CAR T cells when AP1903 was added to the T-cell cultures: per construct, in words
Experimental: On day 8 of culture, 1 million T cells from cultures that were either untransduced or transduced with one of the anti-SLAMF7 CARs cells were suspended at 1×10^6 T cells/mL in AIM V™ media (Invitrogen) plus 300 IU of interleukin-2. One million cells were added to each of 4 wells of a 12-well plate. A different concentration of AP1903 (MedChem Express, Princeton, N.J.) from was added to each well. AP1903 is also referred to as rimiducid. The concentrations of AP1903 evaluated were: 0, 1, 10, or 100 ng/mL.
Six hours and 48 hours after these cultures were set up, the cells were counted, washed, and stained with Protein L as described above. Next, the cells were washed twice with PBS, re-suspended in Annexin V binding buffer (BD Biosciences), and incubated with allophycocyanin-conjugated Annexin V (BD Biosciences) and 7AAD (BD Biosciences) for 15 minutes (mins) at room temp. The cells were immediately analyzed by flow cytometry.

TC71 = test: IFN-gamma ELISA, CAR T cells with TC71 target cells; conditions: Table B-2
Source text: (§1) MM.1S is a SLAMF7^+ multiple myeloma cell line that was obtained from American Type Culture Collection (ATCC). A549 is a BCMA-negative lung cancer cell line (ATCC). TC71 is a BCMA-negative sarcoma cell line. CCRF-CEM, 293T, and A549 are SLAMF7-negative cell lines (ATCC). COL0207, HepG2, U251, Panc10.05, and TC71 are […] that were kind gifts from Dr. Steven Rosenberg, National Cancer Institute. SLAMF7-K562 are K562 cells (ATCC) which were transduced with the gene for full-length SLAMF7. SLAMF7-RPMI are RPMI8226 cells (ATCC) which were transduced with the gene for full-length SLAMF7. NGFR-K562 are K562 cells which were transduced with the gene for low-affinity nerve growth factor (Kochenderfer et al., J. Immunother., 32(7): 689-702 (2009)). All of the human samples mentioned were obtained from patients enrolled in IRB-approved clinical trials at the National Cancer Institute.
(§2) One-hundred thousand SLAMF7^+ or SLAMF7-negative target cells were combined with 100,000 CAR-transduced T cells in duplicate wells of a 96 well round bottom plate in 200 µL of AIM V™ medium (Invitrogen) plus 5% human serum. […]
(§3) The T cells columns indicate whether T cells were transduced with Luc90-CD828Z, Luc63-CD828Z, or were untransduced. The % CAR^+ in Table B-1 was determined by staining the T cells with Protein L. Except for the % CAR^+ column, all values are pg/mL of IFN-gamma. […]

HepG2 = test: IFN-gamma ELISA, CAR T cells with HepG2 target cells; conditions: Table B-1
Source text: as §1, §2, §3

H929 = test: IFN-gamma ELISA, CAR T cells with H929 target cells; conditions: Table C
Experimental: One-hundred thousand SLAMF7^+ or SLAMF7-negative target cells were combined with 100,000 CAR-transduced T cells in duplicate wells of a 96 well round bottom plate in 200 µL of AIM V™ medium (Invitrogen) plus 5% human serum. The plates were incubated at 37° C. for 18-20 hours. Following the incubation, ELISAs (enzyme-linked immunosorbent assays) for IFNγ were performed by using standard methods.
All values are pg/mL of IFN-gamma. T cells that were either untransduced or transduced with one of the indicated CARs were cultured with target cells overnight, and a standard IFN-gamma ELISA was performed on the culture supernatant.

Row | Substance | killing of SLAMF7^+ target cells (SLAMF7^+ MM.1S cells) | elimination of CAR^+ T cells, comparison of the two constructs (IC9-expressing T cells; IC9-Luc90-CD828Z compared with Luc90-CD828Z-IC9) | elimination of CAR T cells when AP1903 was added to the T-cell cultures (IC9-expressing T cells) | IFN-gamma, target cells TC71 (TC71) [pg/mL] | IFN-gamma, target cells HepG2 (HepG2) [pg/mL] | IFN-gamma, target cells H929 (H929) [pg/mL]
1 | IC9-Luc90-CD828Z: CAR plus suicide gene construct (SEQ ID NO: 31): IC9 suicide gene 5′ to the CAR, T2A, Luc90-CD828Z | killed SLAMF7^+ target cells; also recorded: specifically killed the SLAMF7^+ MM.1S cells | slightly superior | efficiently eliminated | – | – | –
2 | Luc90-CD828Z: anti-SLAMF7 CAR (SEQ ID NO: 27): murine Luc90 scFv, human CD8a hinge and TM, CD28 and CD3ζ domains; tested as transduced T cells | killed SLAMF7^+ target cells | – | efficiently eliminated | 82 | 24 | 531
